# System: S. aureus ATCC 6538
# Assay: quantitative suspension assay of mono-substances
# Assay type: cell-based, Staphylococcus aureus
# Details: initial cell load 1.7 × 10^5 CFU/ml
# Protocol: A stock solution was prepared by adding 0.1 ml methanol to 10.48 mg of hydroxytyrosol. After dissolving of the compound, the solution was quantitatively transferred into 4.9 ml water for injection (WFI), effective concentration of hydroxytyrosol: 2.0 mg/ml.
# Using the stock solution, five (5) concentrations of hydroxytyrosol in a geometric series of 2 mg hydroxytyrosol/ml to 0.125 mg hydroxytyrosol/ml were tested in a quantitative suspension assay.
# 2 ml of the stock solution and the dilutions (V1 to V4), respectively, and a methanol-solution of 2% as a positive control were inoculated with 0.1 ml of a test suspension of S. aureus ATCC 6538, adjusted to about 2.0×10^5 CFU/0.1 ml, resulting in about 100,000 CFU/ml in the individual assays.
# Samples (0.1 ml) were then taken at t 0, 12, 30, and 60 minutes as well as t 24 48, and 72 hours after inoculation and culturing at between 20-25° C., and were diluted with 0.9 ml of 0.9% NaCl solution. The samples were plated on blood agar plates, and incubated up to 5 days at between 30-35° C.
# A stock solution was prepared at a concentration of 2 mg/ml of oleocanthal. The compound was dissolved by in ethanol (99.8%) and WFI was added.
# Using the stock solution, concentrations of oleocanthal in a geometric series of 1 mg oleocanthal/ml to 0.125 mg oleocanthal/ml were tested in a quantitative suspension assay.
# 2 ml of the stock solution and the dilutions (V1 to V4), respectively, and a ethanol-solution of 2.85% as a positive control were inoculated with 0.055 ml of a test suspension of S. aureus ATCC 6538, adjusted to about 3.6×10^5 CFU/0.1 ml, resulting in about 99,000 CFU/ml in the individual assays.
# A stock solution was prepared at a concentration of 1 mg/ml of oleacin. The compound was dissolved by in ethanol (99.8%) and WFI was added.
# Using the stock solution, concentrations of oleacin at 0.25 mg oleacin/ml and 0.125 mg oleacin/ml were tested in a quantitative suspension assay.
# 2 ml of the stock solution and the dilutions (V1 and V2), respectively, and a ethanol-solution of 0.44% as a positive control were inoculated with 0.055 ml of a test suspension of S. aureus ATCC 6538, adjusted to about 3.5×10^5 CFU/0.1 ml, resulting in about 99,000 CFU/ml in the individual assays.
# A stock solution was prepared by adding 0.1 ml chloroform to 25 mg of uvaol. After dissolving of the compound, the solution was quantitatively transferred into 12.4 ml water for injection (WFI), effective concentration of uvaol: 2.0 mg/ml.
# Using the stock solution, five (5) concentrations of uvaol in a geometric series of 2 mg uvaol/ml to 0.125 mg uvaol/ml were tested in a quantitative suspension assay.
# 2 ml of the stock solution and the dilutions (V1 to V4), respectively, and a chloroform-solution of 0.8% as a positive control were inoculated with 0.1 ml of a test suspension of S. aureus ATCC 6538, adjusted to about 2.0×10^5 CFU/0.1 ml, resulting in about 100,000 CFU/ml in the individual assays.
# A stock solution was prepared by adding 0.1 ml chloroform to 10.45 mg of erythrodiol. After dissolving of the compound, the solution was quantitatively transferred into 4.9 ml water for injection (WFI), effective concentration of erythrodiol: 2.0 mg/ml.
# 2 ml of the stock solution and the dilutions (V1 to V4), respectively, and a chloroform-solution of 2% as a positive control were inoculated with 0.1 ml of a test suspension of S. aureus ATCC 6538, adjusted to about 3.6×10^5 CFU/0.1 ml, resulting in about 100.000 CFU/ml in the individual assays.
compound,measurement,setting,value
OCCc1ccc(O)c(O)c1 [Hydroxytyrosol],Number of CFUs,"0.125 Hyd/ml, t 0 min",7.0 × 10^4 CFU/ml
same,Number of CFUs,"0.125 Hyd/ml, t 12 min",7.4 × 10^4 CFU/ml
same,Number of CFUs,"0.125 Hyd/ml, t 30 min",7.0 × 10^4 CFU/ml
same,Number of CFUs,"0.125 Hyd/ml, t 60 min",6.8 × 10^4 CFU/ml
same,Number of CFUs,"0.125 Hyd/ml, t 24 h",2.8 × 10^3 CFU/ml
same,Number of CFUs,"0.125 Hyd/ml, t 48 h",<100 CFU/ml
same,Number of CFUs,"0.125 Hyd/ml, t 72 h",7.1 × 10^2 CFU/ml
same,Number of CFUs,"0.25 Hyd/ml, t 0 min",5.7 × 10^4 CFU/ml
same,Number of CFUs,"0.25 Hyd/ml, t 12 min",5.1 × 10^4 CFU/ml
same,Number of CFUs,"0.25 Hyd/ml, t 30 min",5.9 × 10^4 CFU/ml
same,Number of CFUs,"0.25 Hyd/ml, t 60 min",7.4 × 10^4 CFU/ml
same,Number of CFUs,"0.25 Hyd/ml, t 24 h",1.4 × 10^3 CFU/ml
same,Number of CFUs,"0.25 Hyd/ml, t 48 h",<100 CFU/ml
same,Number of CFUs,"0.25 Hyd/ml, t 72 h",<100 CFU/ml
same,Number of CFUs,"0.5 Hyd/ml, t 0 min",7.0 × 10^4 CFU/ml
same,Number of CFUs,"0.5 Hyd/ml, t 12 min",6.6 × 10^4 CFU/ml
same,Number of CFUs,"0.5 Hyd/ml, t 30 min",6.4 × 10^4 CFU/ml
same,Number of CFUs,"0.5 Hyd/ml, t 60 min",6.1 × 10^4 CFU/ml
same,Number of CFUs,"0.5 Hyd/ml, t 24 h",2.0 × 10^2 CFU/ml
same,Number of CFUs,"0.5 Hyd/ml, t 48 h",<100 CFU/ml
same,Number of CFUs,"0.5 Hyd/ml, t 72 h",<100 CFU/ml
same,Number of CFUs,"1.0 Hyd/ml, t 0 min",6.8 × 10^4 CFU/ml
same,Number of CFUs,"1.0 Hyd/ml, t 12 min",7.8 × 10^4 CFU/ml
same,Number of CFUs,"1.0 Hyd/ml, t 30 min",7.4 × 10^4 CFU/ml
same,Number of CFUs,"1.0 Hyd/ml, t 60 min",7.2 × 10^4 CFU/ml
same,Number of CFUs,"1.0 Hyd/ml, t 24 h",<100 CFU/ml
same,Number of CFUs,"1.0 Hyd/ml, t 48 h",<100 CFU/ml
same,Number of CFUs,"1.0 Hyd/ml, t 72 h",<100 CFU/ml
same,Number of CFUs,"2.0 Hyd/ml, t 0 min",7.0 × 10^4 CFU/ml
same,Number of CFUs,"2.0 Hyd/ml, t 12 min",8.9 × 10^4 CFU/ml
same,Number of CFUs,"2.0 Hyd/ml, t 30 min",5.9 × 10^4 CFU/ml
same,Number of CFUs,"2.0 Hyd/ml, t 60 min",5.9 × 10^4 CFU/ml
same,Number of CFUs,"2.0 Hyd/ml, t 24 h",<100 CFU/ml
same,Number of CFUs,"2.0 Hyd/ml, t 48 h",<100 CFU/ml
same,Number of CFUs,"2.0 Hyd/ml, t 72 h",<100 CFU/ml
